Our source for the IC50 and EC50 values is PMC5145181, “Structural Mapping and Functional Characterization of Zebrafish Class B G-Protein Coupled Receptor (GPCR) with Dual Ligand Selectivity towards GLP-1 and Glucagon” (PLoS ONE, 2016).

The test system of assay [1] is zfGPCR (dual zfGLP-1R/GCGR). Nature of the assay: Competitive binding, displacement of 125I-exendin(9–39) from recombinant zfGPCR expressed in COS-7 cells. Further details: species or system zebrafish (Danio rerio). To be noted: 125I-exendin(9–39) tracer, intact COS-7 cells, 16–18 h at 4°C, triplicate wells, NSB with 1 μM peptide, n = 4 zfGLP-1, n = 3 hGLP-1, zf glucagon, exendin-4, n = 5 exendin(9–39). 95% CI: zfGLP-1 225–371, hGLP-1 121–262, zf glucagon 78.5–144, h glucagon 33.6–134, exendin-4 0.84–1.17, exendin(9–39) 3.42–5.17. The method, then: (§1) Competitive binding experiments were performed with the recombinant zfGPCR expressed in COS-7 cells, as described previously. Transient transfections of pcDNA3 vector containing recombinant zfGPCR into COS-7 cells were performed as described below for the stimulation of intracellular cAMP. Cells were grown in 100-mm plates to confluence and 24 hr after transfection they were trypsinized and transferred to 24 well plates (Biocore, Becton Dickinson). 24–48 hr later each peptide (pM to μM) was added in triplicate wells followed by the addition of an aliquot (100,000 cpm/well) of either ^125I-hGLP-1(7–36)amide or ^125I-exendin(9–39) (each radioactive peptide tracer at […] receptor grade, NEN Life Science Products, Boston, MA). Peptides, radioiodinated ^125I-tracer and cells were incubated for 16–18 h at 4°C. After incubation cells were washed twice with ice-cold PBS, lysed with 1N NaOH and radioactivity measured in a γ-counter. A single dose-displacement curve for each peptide was obtained in a single 24-well plate.
Non-specific binding was determined in the presence of 1μM of each peptide.
(§2) IC50 values represent an average of n experiments as described above and were calculated by the Prism 4 software. Displacement curves from the competitive binding experiments were plotted by Origin 9 software (OriginLab). Error bars are shown for data points in the displacement curves obtained in two or more rounds of transfections.
(§3) Results from the functional experiments with recombinant zfGPCR transiently expressed in COS-7 cells were analyzed by the Prism 4 software using a four-parameter logistic sigmoidal curve fit model. Data points represent mean +/- SEM.
They are shown together with the 95% confidence intervals (CIs). The F-test was used to compare the IC50 value for zfGLP-1 with the IC50 values for the other tested peptides obtained in the competitive binding experiments shown when ^125I-hGLP-1(7–36)amide or ^125I-exendin (9–39) were used as tracers. Following conditions were used for the curve fitting: (i) in the normalization step y = 0%was set to be 0, y = 100% was set to be 100; (ii) constrained curve-fit parameters were set to be equal to 0.00 on the bottom, 100 on top; (iii) IC50 was not constrained; (iv) the selected option in the non-linear regression curve fit was intended on finding out whether the best-fit of a selected parameter (IC50) differs between two sets.

Assay [2] relates to zfGPCR (dual zfGLP-1R/GCGR). Kind of assay: Competitive binding, displacement of 125I-hGLP-1(7–36)amide from recombinant zfGPCR expressed in COS-7 cells. To be noted: 125I-hGLP-1(7–36)amide tracer, intact COS-7 cells, 16–18 h at 4°C, triplicate wells; NSB with 1 μM peptide; n = 3 hGLP-1, n = 2 zf glucagon, exendin-4, exendin(9–39), n = 1 zfGLP-1. 95% CI: zfGLP-1 1.2–3.6; hGLP-1 0.98–13; zf glucagon 1.4–4.0; exendin-4 0.24–0.92; exendin(9–39) 2.4–14. Details: species or system zebrafish (Danio rerio). On the procedure: as §1
Dose-response curves for zfGLP-1, zfGLP-2 and zebrafish PACAP-38 were obtained from one transfection. […] Lower rounds of transfections were performed in experiments that replicated our published results from the competitive binding experiments with the displacement of ^125I-hGLP-1(7–36)amide binding to zfGPCR [41] and thus represented positive controls for these studies.
as §2, §3
They are shown together with the 95% confidence intervals (CIs). […]

In assay [3] the test system is zfGPCR (dual zfGLP-1R/GCGR). Nature of the assay: Intracellular cAMP in COS-7 cells expressing recombinant zfGPCR. In kind it is cell-based, zebrafish (Danio rerio). To be noted: 20 min at 37°C, pH 7.4, 1 mM 1-methyl-3-isobutylxanthine, enzyme immunoassay; n = 9 zfGLP-1, n = 5 hGLP-1, zf glucagon, h glucagon, n = 3 exendin-4, n = 6 zfGLP-2. 95% CI: zfGLP-1 0.24–0.80; hGLP-1 0.65–1.63; zf glucagon 0.20–2.9; h glucagon 0.18–1.63; exendin-4 0.07–0.46; zfGLP-2 16.8–72.6. On the procedure: The ability of different peptides to stimulate the increase in intracellular cAMP levels following their binding to the recombinant zfGPCR transiently expressed in COS-7 cells was measured using methods that we developed for non-mammalian G-protein coupled receptors. In brief, COS-7 cells were grown to confluence in 100-mm plates at 37°C and transfected with the pcDNA3 vector containing the recombinant zfGPCR using the TransFast transfection reagent (Promega, Madison, WI) at a […] of plasmid DNA (25 ug) to transfection reagent (75 μL). After 24 h cells were trypsynized and transferred to 24-well plates (Biocore, Becton-Dickinson, Franklin Lakes, NJ). Peptides (pM-μM) were added 24–48 h later. Cells were equilibrated prior to the addition of peptides with the assay buffer (DMEM, 0.5% BSA, 20mM HEPES, 1mM 1-methyl-3-isobutylxanthine, 0.1mM phenylmethylsulfonyl fluoride, pH 7.4) for 20 min at 37°C. Each peptide concentration was added in triplicate wells for 20 min at 37°C. cAMP dose-response curves for each tested peptide were obtained in a single 24-well plate. In all experiments, forskolin (100 nM) (Sigma-Aldrich, St.Louis, MO) was added as a positive control, also in triplicate wells, in the same 24-well plate as the tested peptide. After incubation, the media was removed and cells were lysed by the addition of cold ethanol (1 mL per well). Cell debris was pelleted by centrifugation (10,000 g) for 10-min, and supernatants were dried using a vacuum concentrator. Samples were resuspended in an assay buffer provided by the manufacturer and cAMP levels were quantified by the enzyme immunoassay kit (Cayman Chemicals, Ann Arbor, MI) according to the manufacturer’s instructions. The basal concentration of cAMP (in the absence of peptides) was taken as 1.00, and was in the range of 9–16 pmol/well. Results are presented as a fold-increase over basal.
Results were plotted by the Origin 9 software (OriginLab), and EC50 values were calculated by Prism 4 software as described below.
as §3
They are shown together with the 95% confidence intervals (CIs).
Comparison of EC50 values calculated from the zfGLP-1 cAMP dose-response curve with the EC50 calculated from the cAMP dose-response curves for each of the tested peptides were performed by the F-test from the Prism 4 software which compares the fitted mid-point (EC50) from the data sets of the two dose-response curves under comparison. Conditions of analysis were as follows: (i) in the normalization step y = 0% was set to be 1 (the basal cAMP concentration taken as 1); y = 100% was set to be the largest value in each data set; (ii) constrained curve-fit parameters were set to be equal to 0.00 on the bottom, 100 on top; (iii) EC50 was not constrained; (iv) the selected option in the non-linear regression curve fit was intended on finding out whether the best-fit of a selected parameter (EC50) differs between two sets.

For the substance “exendin-4: peptide exclusively found in the saliva of a lizard; agonist of GLP-1R; purchased from Bachem”, the values for the IC50 in assay [1] and in assay [2] were 1 nM and 0.48 nM, respectively. Moreover, the EC50 (as a rule, the concentration giving half of the maximal effect) in assay [3] amounted to 0.18 nM.
